# Experimental data published in patent US9593108B2, “Compounds and methods for antiviral treatment” (PTC Therapeutics, Inc., priority 2009, dated 2017).
# What was measured:
# [1] = system: HCV replicon RNA (GenBank Accession No. AJ242654); test: HCV Replicon Assay (replicon RNA reduction and/or Fluc reporter signal); type: cell-based, Hepatitis C virus; conditions: Hepatitis C virus, 72 h, replicon-containing cells cultured with test compound for up to 3 days
# Outline: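 IC50 values mostly reflect the drop in replicon RNA, though Fluc reporter signal may also be used. Compound incubated with cells carrying the bicistronic replicon for as long as 3 days; interferon served as positive control.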
SMILES,IC50 [1],melting point
"CC(C)(NS(=O)(=O)c1ccc(-c2c(C#N)c3cc(C(F)(F)F)cnc3n2C2CCCCC2)nc1)C(F)(F)F [Cpd 417, 6-[3-cyano-1-cyclohexyl-5-(trifluoromethyl)-1H-pyrrolo[2,3-b]pyridin-2-yl]-N-(1,1,1-trifluoro-2-methylpropan-2-yl)pyridine-3-sulfonamide]",< 500 nM,177 to 179 °C
"CC(C)(NS(=O)(=O)c1ccc(-c2c(C#N)c3cc(C(F)(F)F)cnc3n2C2CCCCC2)cc1)C(F)(F)F [Cpd 418, 4-[3-cyano-1-cyclohexyl-5-(trifluoromethyl)-1H-pyrrolo[2,3-b]pyridin-2-yl]-N-(1,1,1-trifluoro-2-methylpropan-2-yl)benzenesulfonamide]",< 500 nM,203 to 205 °C
"N#Cc1c(-c2ccc(S(=O)(=O)NC3(C(F)(F)F)CC3)cn2)n(C2CCCCC2)c2ncc(C(F)(F)F)cc12 [Cpd 419, 6-[3-cyano-1-cyclohexyl-5-(trifluoromethyl)-1H-pyrrolo[2,3-b]pyridin-2-yl]-N-[1-(trifluoromethyl)cyclopropyl]pyridine-3-sulfonamide]",< 500 nM,192 to 193 °C
"N#Cc1c(-c2ccc(S(=O)(=O)NC3(C(F)(F)F)CC3)cc2)n(C2CCCCC2)c2ncc(C(F)(F)F)cc12 [Cpd 420, 4-[3-cyano-1-cyclohexyl-5-(trifluoromethyl)-1H-pyrrolo[2,3-b]pyridin-2-yl]-N-[1-(trifluoromethyl)cyclopropyl]benzenesulfonamide]",< 500 nM,195 to 197 °C
"CC1(NS(=O)(=O)c2ccc(-c3c(C#N)c4cc(C(F)(F)F)cnc4n3C3CCCCC3)cc2)CC1 [Cpd 421, 4-[3-cyano-1-cyclohexyl-5-(trifluoromethyl)-1H-pyrrolo[2,3-b]pyridin-2-yl]-N-(1-methylcyclopropyl)benzenesulfonamide]",< 500 nM,173 to 175 °C
"CC(C)(C)NS(=O)(=O)c1ccc(-c2c(C#N)c3cc(C(F)(F)F)cnc3n2C2CCCCC2)cc1 [Cpd 422, N-tert-butyl-4-[3-cyano-1-cyclohexyl-5-(trifluoromethyl)-1H-pyrrolo[2,3-b]pyridin-2-yl]benzenesulfonamide]",< 500 nM,176 to 178 °C
"C[C@@H](NS(=O)(=O)c1ccc(-c2c(C#N)c3cc(C(F)(F)F)cnc3n2C2CCCCC2)cc1)C(F)(F)F [Cpd 423, 4-[3-cyano-1-cyclohexyl-5-(trifluoromethyl)-1H-pyrrolo[2,3-b]pyridin-2-yl]-N-[(2R)-1,1,1-trifluoropropan-2-yl]benzenesulfonamide]",< 500 nM,185 to 187 °C
"CC(C)(C)S(=O)(=O)Nc1ccc(-c2c(C#N)c3cc(C(F)(F)F)cnc3n2C2CCCCC2)cc1 [Cpd 424, N-{4-[3-cyano-1-cyclohexyl-5-(trifluoromethyl)-1H-pyrrolo[2,3-b]pyridin-2-yl]phenyl}-2-methylpropane-2-sulfonamide]",< 500 nM,245 to 247 °C
"CC(C)S(=O)(=O)Nc1ccc(-c2c(C#N)c3cc(C(F)(F)F)cnc3n2C2CCCCC2)cc1 [Cpd 425, N-{4-[3-cyano-1-cyclohexyl-5-(trifluoromethyl)-1H-pyrrolo[2,3-b]pyridin-2-yl]phenyl}propane-2-sulfonamide]",< 500 nM,228 to 230 °C
"CC1(S(=O)(=O)Nc2ccc(-c3c(C#N)c4cc(C(F)(F)F)cnc4n3C3CCCCC3)cc2)CC1 [Cpd 426, N-{4-[3-cyano-1-cyclohexyl-5-(trifluoromethyl)-1H-pyrrolo[2,3-b]pyridin-2-yl]phenyl}-1-methylcyclopropanesulfonamide]",< 500 nM,255 to 256 °C
"N#Cc1c(-c2ccc(NS(=O)(=O)C3CC3)cc2)n(C2CCCCC2)c2ncc(C(F)(F)F)cc12 [Cpd 427, N-{4-[3-cyano-1-cyclohexyl-5-(trifluoromethyl)-1H-pyrrolo[2,3-b]pyridin-2-yl]phenyl}cyclopropanesulfonamide]",< 500 nM,225 to 227 °C
"N#Cc1c(-c2ccc(NS(=O)(=O)C3CCC3)cc2)n(C2CCCCC2)c2ncc(C(F)(F)F)cc12 [Cpd 428, N-{4-[3-cyano-1-cyclohexyl-5-(trifluoromethyl)-1H-pyrrolo[2,3-b]pyridin-2-yl]phenyl}cyclobutanesulfonamide]",< 500 nM,234 to 236 °C
"C[C@H](NS(=O)(=O)c1ccc(-c2c(C#N)c3cc(Cl)cnc3n2-c2nccs2)nc1)C(F)(F)F [Cpd 429, 6-[5-chloro-3-cyano-1-(1,3-thiazol-2-yl)-1H-pyrrolo[2,3-b]pyridin-2-yl]-N-[(2S)-1,1,1-trifluoropropan-2-yl]pyridine-3-sulfonamide]",< 500 nM,181 to 183 °C
"Cc1cnc2c(c1)c(C#N)c(-c1ccc(S(=O)(=O)N[C@@H](C)C(F)(F)F)cn1)n2-c1cncs1 [Cpd 430, 6-[3-cyano-5-methyl-1-(1,3-thiazol-5-yl)-1H-pyrrolo[2,3-b]pyridin-2-yl]-N-[(2S)-1,1,1-trifluoropropan-2-yl]pyridine-3-sulfonamide]",< 500 nM,176 to 178 °C
"Cc1cnc2c(c1)c(C#N)c(-c1ccc(S(=O)(=O)N[C@@H](C)C(F)(F)F)cn1)n2-c1ccncn1 [Cpd 431, 6-[3-cyano-5-methyl-1-(pyrimidin-4-yl)-1H-pyrrolo[2,3-b]pyridin-2-yl]-N-[(2S)-1,1,1-trifluoropropan-2-yl]pyridine-3-sulfonamide]",< 500 nM,233 to 235 °C
"Cc1cnc2c(c1)c(C#N)c(-c1ccc(S(=O)(=O)N[C@@H](C)C(F)(F)F)cn1)n2-c1ccc(F)cn1 [Cpd 432, 6-[3-cyano-1-(5-fluoropyridin-2-yl)-5-methyl-1H-pyrrolo[2,3-b]pyridin-2-yl]-N-[(2S)-1,1,1-trifluoropropan-2-yl]pyridine-3-sulfonamide]",< 500 nM,199 to 200 °C
"Cc1cnc2c(c1)c(C#N)c(-c1ccc(S(=O)(=O)N[C@@H](C)C(F)(F)F)cn1)n2-c1cc(C(F)(F)F)ccn1 [Cpd 433, 6-{3-cyano-5-methyl-1-[4-(trifluoromethyl)pyridin-2-yl]-1H-pyrrolo[2,3-b]pyridin-2-yl}-N-[(2S)-1,1,1-trifluoropropan-2-yl]pyridine-3-sulfonamide]",< 500 nM,192 to 194 °C
"Cc1cnc2c(c1)c(C#N)c(-c1ccc(S(=O)(=O)N[C@@H](C)C(F)(F)F)cn1)n2-c1cc(N)ccn1 [Cpd 434, 6-[1-(4-aminopyridin-2-yl)-3-cyano-5-methyl-1H-pyrrolo[2,3-b]pyridin-2-yl]-N-[(2S)-1,1,1-trifluoropropan-2-yl]pyridine-3-sulfonamide]",2000 to 5000 nM,202 to 203 °C
"Cc1cnc2c(c1)c(C#N)c(-c1ccc(S(=O)(=O)N[C@@H](C)C(F)(F)F)cn1)n2-c1ncc(Br)cn1 [Cpd 435, 6-[1-(5-bromopyrimidin-2-yl)-3-cyano-5-methyl-1H-pyrrolo[2,3-b]pyridin-2-yl]-N-[(2S)-1,1,1-trifluoropropan-2-yl]pyridine-3-sulfonamide]",500 to 2000 nM,169 to 171 °C
"Cc1cnc2c(c1)c(C#N)c(-c1ccc(S(=O)(=O)N[C@@H](C)C(F)(F)F)cn1)n2-c1ccnnc1 [Cpd 436, 6-[3-cyano-5-methyl-1-(pyridazin-4-yl)-1H-pyrrolo[2,3-b]pyridin-2-yl]-N-[(2S)-1,1,1-trifluoropropan-2-yl]pyridine-3-sulfonamide]",< 500 nM,196 to 198 °C
"C[C@H](NS(=O)(=O)c1ccc(-c2c(C(N)=O)c3cc(C(F)(F)F)cnc3n2C2CCCCC2)cc1)C(F)(F)F [Cpd 437, 1-cyclohexyl-5-(trifluoromethyl)-2-(4-{[(2S)-1,1,1-trifluoropropan-2-yl]sulfamoyl}phenyl)-1H-pyrrolo[2,3-b]pyridine-3-carboxamide]",< 500 nM,291 to 293 °C
"CC(C)(NS(=O)(=O)c1ccc(-c2c(C(N)=O)c3cc(C(F)(F)F)cnc3n2C2CCCCC2)nc1)C(F)(F)F [Cpd 438, 1-cyclohexyl-5-(trifluoromethyl)-2-{5-[(1,1,1-trifluoro-2-methylpropan-2-yl)sulfamoyl]pyridin-2-yl}-1H-pyrrolo[2,3-b]pyridine-3-carboxamide]",< 500 nM,250 to 252 °C
"CC(C)(NS(=O)(=O)c1ccc(-c2c(C(N)=O)c3cc(C(F)(F)F)cnc3n2C2CCCCC2)cc1)C(F)(F)F [Cpd 439, 1-cyclohexyl-5-(trifluoromethyl)-2-{4-[(1,1,1-trifluoro-2-methylpropan-2-yl)sulfamoyl]phenyl}-1H-pyrrolo[2,3-b]pyridine-3-carboxamide]",< 500 nM,280 to 283 °C
"NC(=O)c1c(-c2ccc(S(=O)(=O)NC3(C(F)(F)F)CC3)cn2)n(C2CCCCC2)c2ncc(C(F)(F)F)cc12 [Cpd 440, 1-cyclohexyl-5-(trifluoromethyl)-2-(5-{[1-(trifluoromethyl)cyclopropyl]sulfamoyl}pyridin-2-yl)-1H-pyrrolo[2,3-b]pyridine-3-carboxamide]",< 500 nM,272 to 275 °C
"NC(=O)c1c(-c2ccc(S(=O)(=O)NC3(C(F)(F)F)CC3)cc2)n(C2CCCCC2)c2ncc(C(F)(F)F)cc12 [Cpd 441, 1-cyclohexyl-5-(trifluoromethyl)-2-(4-{[1-(trifluoromethyl)cyclopropyl]sulfamoyl}phenyl)-1H-pyrrolo[2,3-b]pyridine-3-carboxamide]",< 500 nM,303 to 306 °C
"CC1(NS(=O)(=O)c2ccc(-c3c(C(N)=O)c4cc(C(F)(F)F)cnc4n3C3CCCCC3)cc2)CC1 [Cpd 442, 1-cyclohexyl-2-{4-[(1-methylcyclopropyl)sulfamoyl]phenyl}-5-(trifluoromethyl)-1H-pyrrolo[2,3-b]pyridine-3-carboxamide]",< 500 nM,284 to 286 °C
